# Data: US4168318A, “1-(2,4,6-Trihydroxyphenyl)-propanedione-(1,2)-compounds and therapeutic compositions” (priority 1974, dated 1979)
# Like-named read-outs stand apart in the source and are kept apart here. Marks after values point to notes of the source that are not given here.
# Columns and labels:
# [1] = test system: mice; experiment: Acute toxicity / acute tolerance after i.v. injection in mice (Experiment A); type: in vivo, mice (male and female SPF-mice, stock NMRI); conditions: for death rate % / death rate/No.: 14 days observation; for death rate/day, 1st: 1st day; for DL50, converted to the free compound: given as N-methyl glucamine salt, expressed as Compound; for death rate/day, 3rd: 3rd day; for acute symptoms of non-tolerance: mice; for death rate/day, 2nd: 2nd day
# Protocol: (§1) The acute toxicity of the compounds of the invention was tested on mice, and since the substances are substantially nontoxic after oral administration, the acute tolerance of the two Compounds B and C in their methyl glucamine salts form was determined after i.v. injection. This form of preparation was also chosen for the pharmacological measurement of the antiphalloidine effect.
# (§2) Experimental animals were male and female SPF-mice, stock NMRI, of the firm of Voss, Tuttlingen, Germany, having a weight of about 25-30 g. each. All animals were housed under identical conditions and were given "Sniff" standard food and drinking water ad libitum. The mice were administered the dosages once in 20 ml 0.9% NaCl+4% PVP/kg i.v. at an injection rate of approximately 1 ml/min. The observation time was 14 days.
# (§3) 1. Compound B as N-methyl glucamine salt.
# (§4) 2. Compound C as N-methyl glucamine salt.
# (§5) 3. Polyvinyl pyrrolidone (PVP) of Fluka, mol. wt.~10,000 stock solution: 4% PVP dissolved in 0.9% NaCl.
# [2] = test system: liver damage induced by phalloidine; experiment: Anti-phalloidine effect: death rate and survival time after phalloidine poisoning (Experiment B); type: in vivo, mice (male and female, homebred strain, stock Garvens); conditions: 140.5 mg/kg i.v. as N-methyl glucamine salt 1 hour before phalloidine 3 mg/kg i.p.
# Protocol: The liver-protective effect of the compounds B and C according to the invention in the form of their water-soluble N-methyl glucamine salts was tested on mice by antagonizing liver damage induced by phalloidine with treatment using the compounds of the invention.
# 140.5 mg of Compound B/25 ml 0.9% NaCl+4% PVP/kg i.v.
# 40.5 mg MG/25 ml 0.9% NaCl+4% PVP/[…] i.v.
# Phalloidine, predissolved in 3 ml methanol to 20 ml 0.9%
# Experimental animals were male and female mice of a homebred strain, stock Garvens, having a weight of about 20-25 g. All animals were housed under identical conditions and were given "Ssniff" standard food and drinking water ad libitum.
# Compound B as its N-methyl glucamine salt was injected in a dosage of 140.5 mg/kg i.v. 1 hour prior to administration of phalloidine at 3 mg/kg i.p. (to induce damage to the liver). The control animals received 40.5 mg/kg N-methyl glucamine salt i.v. The death rate and survival time after the phalloidine poisoning were registered. The observation time was 7 days.
# [3] = Acute toxicity / acute tolerance after i.v. injection in mice (Experiment A); type: in vivo, mice (male and female SPF-mice, stock NMRI); conditions: mouse, in vivo, iv; for mortality at 336 h: N-methyl glucamine salt, 14 days observation, read-out: death rate %; for LD50 at 336 h: i.v., given as N-methyl glucamine salt, expressed as Compound, read-out: DL50, converted to the free compound
# Protocol: as §1, §2, §3, §4, §5
# [4] = test system: phalloidine-induced damage to the liver; experiment: Anti-phalloidine effect: serum enzymes GOT and GPT (Experiment C); type: in vivo, mice (female SPF-mice, stock NMRI); conditions: 140.5 mg/kg i.v. as N-methyl glucamine salt 1 hour before phalloidine 1.5 mg/kg i.p.
# Protocol: As an additional pharmacological measurement, the antiphalloidine effect of Compound C as its N-methyl glucamine salt i.v. was subsequently determined.
# 1.5 mg phalloidine, predissolved in 3 ml methanol ad 20 ml
# Experimental animals were female SPF-mice, stock NMRI, of the firm of Voss, Tuttlingen, having a weight of about 25 g. All animals were housed under identical conditions and were given "Ssniff" standard food and drinking water ad libitum. Compound C as its N-methyl glucamine salt was injected in a dosage of 140.5 mg/kg i.v. 1 hour before the phalloidine poisoning (1.5 mg/kg i.p.). The control animals received 40.5 mg/kg N-methyl glucamine salt i.v. after a period of 24 hours subsequent to the damage to the liver, blood was taken from the mice from the retroorbital venae plexus for the determination of the serum enzymes GOT and GPT.
# [5] = female mice, 570 mg/kg i.v., N-methyl glucamine salt
# [6] = female mice, 680 mg/kg i.v., N-methyl glucamine salt
# [7] = female mice, 800 mg/kg i.v., N-methyl glucamine salt
# [8] = female mice, 960 mg/kg i.v., N-methyl glucamine salt
# [9] = male mice, 425 mg/kg i.v., N-methyl glucamine salt
# [10] = male mice, 600 mg/kg i.v., N-methyl glucamine salt
# [11] = male mice, 714.1 mg/kg i.v., N-methyl glucamine salt
# [12] = male mice, 850 mg/kg i.v., N-methyl glucamine salt
# [13] = male mice, 1200 mg/kg i.v., N-methyl glucamine salt
# [14] = male mice, 1700 mg/kg i.v., N-methyl glucamine salt
# [15] = female mice, 424.3 mg/kg i.v., N-methyl glucamine salt
# [16] = female mice, 504.6 mg/kg i.v., N-methyl glucamine salt
# [17] = female mice, 600 mg/kg i.v., N-methyl glucamine salt
# [18] = male mice, 424.3 mg/kg i.v., N-methyl glucamine salt
# [19] = male mice, 504.6 mg/kg i.v., N-methyl glucamine salt
smiles,measurement,setting,value
COc1cc(C2Oc3cc(CC(=O)C(=O)c4c(O)cc(O)cc4O)ccc3OC2CO)ccc1O (stereo not drawn) [Compound B],death rate %,[1]; [5],0%
same,death rate/No.,[1]; [5],0/10
same,"death rate/day, 1st",[1]; [6],1
same,death rate %,[1]; [6],10%
same,death rate/No.,[1]; [6],1/10
same,survival time span,"[1]; female mice, 680 mg/kg i.v., N-methyl glucamine salt, ' = minutes, ^h = hours",~23^h minutes-hours
same,"death rate/day, 1st",[1]; [7],3
same,death rate %,[1]; [7],30%
same,death rate/No.,[1]; [7],3/10
same,"death rate/day, 1st",[1]; [8],7
same,death rate %,[1]; [8],70%
same,death rate/No.,[1]; [8],7/10
same,"DL50, converted to the free compound","[1]; female mice, i.v., 20160 min",604.98 mg/kg
same,death rate %,[1]; [9],0%
same,death rate/No.,[1]; [9],0/5
same,death rate %,[1]; [10],0%
same,death rate/No.,[1]; [10],0/10
same,"death rate/day, 1st",[1]; [11],1
same,"death rate/day, 3rd",[1]; [11],2
same,death rate %,[1]; [11],30%
same,death rate/No.,[1]; [11],3/10
same,"death rate/day, 1st",[1]; [12],8
same,death rate %,[1]; [12],80%
same,death rate/No.,[1]; [12],8/10
same,"death rate/day, 1st",[1]; [13],5
same,death rate %,[1]; [13],100%
same,death rate/No.,[1]; [13],5/5
same,"death rate/day, 1st",[1]; [14],3
same,death rate %,[1]; [14],100%
same,death rate/No.,[1]; [14],3/3
same,DL50,"[1]; male mice, i.v., dose as N-methyl glucamine salt, 20160 min",820 ± 34 mg/kg
same,"DL50, converted to the free compound","[1]; male mice, i.v., 20160 min",583.63 mg/kg
same,acute symptoms of non-tolerance,"[1]; i.v., N-methyl glucamine salt","accelerated respiration, laying on their side, and clonic tonic cramps before death actually occurred"
same,phalloidine poisoning (DL80) measured by death rate and survival time,[2],prevented
same,death rate,"[2]; male and female mice, 7 days, control 80%",0%
COc1cc(C2Oc3c(O)cc(CC(=O)C(=O)c4c(O)cc(O)cc4O)cc3C2CO)ccc1O (stereo not drawn) [Compound C],death rate/No.,"[1]; female mice, 300 mg/kg i.v., N-methyl glucamine salt",0/10
same,"death rate/day, 2nd",[1]; [15],1
same,"death rate/day, 3rd",[1]; [15],5
same,"death rate/day, 4th","[1]; female mice, 424.3 mg/kg i.v., N-methyl glucamine salt, 4th day",2
same,death rate/No.,[1]; [15],8/10
same,"death rate/day, 1st",[1]; [16],5
same,death rate/No.,[1]; [16],5/5
same,"death rate/day, 1st",[1]; [17],5
same,death rate/No.,[1]; [17],5/5
same,death rate/No.,"[1]; male mice, 300 mg/kg i.v., N-methyl glucamine salt",0/10
same,"death rate/day, 2nd",[1]; [18],3
same,"death rate/day, 3rd",[1]; [18],1
same,death rate/No.,[1]; [18],4/10
same,"death rate/day, 1st",[1]; [19],5
same,death rate/No.,[1]; [19],5/5
same,"death rate/day, 1st",[1]; [10],5
same,death rate/No.,[1]; [10],5/5
same,acute symptoms of non-tolerance,"[1]; i.v., N-methyl glucamine salt","accelerated respiration, laying on their side, and clonic tonic cramps before death actually occurred"
same,mortality at 336 h,"[3]; 300 mg/kg, female mice, 300 mg/kg i.v.",0%
same,mortality at 336 h,"[3]; 300 mg/kg, male mice, 300 mg/kg i.v.",0%
same,mortality at 336 h,"[3]; 424.3 mg/kg, female mice, 424.3 mg/kg i.v.",80%
same,mortality at 336 h,"[3]; 424.3 mg/kg, male mice, 424.3 mg/kg i.v.",40%
same,mortality at 336 h,"[3]; 504.6 mg/kg, female mice, 504.6 mg/kg i.v.",100%
same,mortality at 336 h,"[3]; 504.6 mg/kg, male mice, 504.6 mg/kg i.v.",100%
same,mortality at 336 h,"[3]; 600 mg/kg, female mice, 600 mg/kg i.v.",100%
same,mortality at 336 h,"[3]; 600 mg/kg, male mice, 600 mg/kg i.v.",100%
same,LD50 at 336 h,[3]; female mice,274 mg/kg
same,LD50 at 336 h,[3]; male mice,295 mg/kg
same,"damage to the liver, measured by the increase of serum enzymes GOT and GPT",[4],entirely prevented
same,GPT in the serum,"[4]; female mice, 24 hours after, control 667.4±324.6",13.4±0.9 mU/ml
same,GOT in the serum,"[4]; female mice, 24 hours after, control 1489.2±904.7",38.7±2.9 mU/ml
